Entries after “also recorded” stand apart in the source; their conditions may differ.
Tests used:
[1] = tested on: mRNA encoding ATF3, IL-6, BDNF and iNOS; experiment: Real-time qRT-PCR of mRNA levels in ganglia and central tissues of CCI-SN rats; format: in vivo, rat; conditions: subchronic 10 mg/kg i.p. twice daily; ipsilateral DRG and dorsal quadrant of lumbar spinal cord; day 20
Description: Real-time qRT-PCR determinations were made on the 20th day after CCI-SN or sham operation. Saline or Tapentadol was administered at days 16-20 under treatment conditions according to Example 2 (subchronic treatment conditions). Rats were decapitated 4 h after the last injection on day 20, tissues were immediately dissected in the cold (0° C.) and processed for mRNA extraction and quantification as described by Latrémolière et al. (J. Neurosci. 2008, 28, 8489-8501).
mRNA levels are expressed with reference to transcript encoding the […] GaPDH (glyceraldehyde 3-phosphate dehydrogenase). Each bar is the mean±S.E.M. of 4-6 independent determinations.

CCI-SN rats = format: in vivo, rat
Description: Rats are anaesthetized with sodium pentobarbital (50 mg/kg i.p.). Unilateral CCI-SN is performed under direct visual control using a Zeiss microscope (10-25×) essentially as described by Bennett and Xie (G. J. Bennett et al., Pain, 33 (1988) 87-107).
Mechanical sensitivity is determined with a graded series of von Frey filaments (Bioseb, Bordeaux, France; bending force: 0.07-60.0 g). The stimuli are applied within the SN territory (midplantar surface of the left hindpaw) three times at the nerve-injured side (ipsilateral, left) and then at the contralateral side for a total of 6 applications of each filament per rat, always beginning with the filament producing the lowest force. The von Frey filaments are applied at least 3 seconds after the rats returned to their initial resting state. For each session, the complete series of von Frey filaments is tested in increasing force order. The minimal force filament causing a hindpaw withdrawal response allows determination of the mechanical response threshold. The 60 g filament is the cut-off threshold.
For studying the effects of acute treatment with tapentadol in CCI-SN rats, tapentadol (1, 3 and 10 mg/kg i.p.) or its vehicle (0.9% NaCl i. p.) was injected acutely 14 days after surgery. Sham-operated rats were treated in parallel. Pressure threshold values to trigger nocifensive responses to von Frey filaments application onto the plantar surface of ipsilateral hindpaw were determined at various times after acute injection of tapentadol or saline. Cut-off was fixed at 60 g pressure.
For studying the effects of subchronic treatment with tapentadol in CCI-SN rats, starting on day 16 (Time=D) after surgery, they received i.p. injections of tapentadol (10 mg/kg, twice daily, at 10:00 AM and 6:00 PM) or saline (at the same day times as the drug) for four days. On the following day (day 20 after surgery), both tapentadol- and saline-pretreated CCI-SN rats were i.p. injected with Tapentadol (10 mg/kg; Time=0) and then subjected to von Frey filaments'test applied to ipsilateral hindpaw for determination of pressure threshold values at various times thereafter.
In a second part of this study (B), unilateral chronic constriction injury to the sciatic nerve was performed two weeks before acute treatment with reboxetine (10 mg/kg i.p.), tapentadol (10 mg/kg i.p.) or saline (0.5 ml i.p./rat). Pressure threshold values were then determined at various times using von Frey filaments test applied to ipsilateral hindpaw.
Morphine (1, 3 and 10 mg/kg s.c.) or its vehicle (0.9% NaCl) was injected acutely 14 days after CCI-SN surgery. Sham-operated rats were treated in parallel. Pressure threshold values to trigger nocifensive responses to von Frey filaments application onto the plantar surface of ipsilateral hindpaw were determined at various times after acute injection of morphine or saline.
14 days after CCI-SN surgery, rats were injected with reboxetine (10 mg/kg i.p.) or its vehicle (0.9% NaCl) followed, 15 min later, by morphine (1 mg/kg s.c.) or its vehicle (0.9% NaCl) and subjected to von Frey filament tests for the following 4 hours. Sham-operated rats were treated in parallel.
The results are depicted in FIG. 11.

[2] = human, in vivo; cited from earlier work

## CC[C@@H](c1cccc(O)c1)[C@@H](C)CN(C)C [tapentadol, (−)-(1R,2R)-3-(3-dimethylamino-1-ethyl-2-methyl-propyl)-phenol]
[1]
  levels of mRNA encoding ATF3, IL-6, BDNF and iNOS versus saline-treated CCI-SN rats: not significantly different
CCI-SN rats; 1 mg/kg i.p., acute, first 15-30 min after injection, non significant
  increase in pressure threshold value: approximately 40%
CCI-SN rats; 3 mg/kg i.p., acute
  effect on pressure threshold values: increased pressure threshold values, but to a lower extent than 10 mg/kg i.p.
CCI-SN rats; 10 mg/kg i.p. twice daily for four days or saline, then 10 mg/kg i.p. on day 20
  anti-allodynic effect of last administration after subchronic pretreatment (sensitization/desensitization): produced the same anti-allodynic effects in saline-pretreated and tapentadol-pretreated rats; also recorded: neither in CCI-SN rats nor in those with CCI-ION, any sign of sensitization or desensitization
CCI-SN rats; 10 mg/kg i.p., acute, 15-30 min after administration
  pressure threshold values compared to healthy control values: no longer differed from healthy control values
CCI-SN rats; 10 mg/kg i.p., acute, 90 min after injection
  mechanical allodynia compared to saline-treated CCI-SN rats: did not significantly differ from that measured in saline-treated CCI-SN rats
CCI-SN rats; 10 mg/kg i.p., first 45 min after last injection
  pressure threshold values after the last injection under subchronic treatment: markedly increased pressure threshold values
CCI-SN rats; 1-10 mg/kg i.p. dose range, acute
  dose dependence of anti-allodynic effect: clear dose-dependent anti-allodynic effect
[2]
  pain-alleviating action relative to morphine: two to three times less
